Source: patent US20240287138A1, “CYCLIC PEPTIDES FOR INHIBITING TNF RECEPTOR 1 ACTIVITY” (Merck Sharp & Dohme LLC, priority 2023, published 2024)
Read-outs that look alike come from different tables or passages of the source. Numbered stars: 1 amine (or outer) side, 2 acyl side, 3 side chain; on linkers, the order of the positions; unused ones are H or OH. Bridge positions count the residues as written; N and C are the ends. Square brackets hold non-standard residues; d marks the D form. Peptide text beside a SMILES is read from it. * marks the point of attachment. Trp(βS-Me,7-OMe) = COc1cccc2c([C@H](C)[C@H](N)C(=O)O)c[nH]c12; dPro(trans-4-NMe3+) = C[N+](C)(C)[C@@H]1CN[C@@H](C(=O)O)C1; Phe(4-SO2NH2) = N[C@@H](Cc1ccc(S(N)(=O)=O)cc1)C(=O)O; Trp(7-CN) = N#Cc1cccc2c(C[C@H](N)C(=O)O)c[nH]c12; Trp(7-Cl) = N[C@@H](Cc1c[nH]c2c(Cl)cccc12)C(=O)O; Phe(4-CONH2) = NC(=O)c1ccc(C[C@H](N)C(=O)O)cc1; Phe(4-COOH) = N[C@@H](Cc1ccc(C(=O)O)cc1)C(=O)O; 4Pal(3S-Me) = C[C@@H](c1ccncc1)[C@H](N)C(=O)O; Trp(7-aza) = N[C@@H](Cc1c[nH]c2ncccc12)C(=O)O; Phe(4-CH2NH2) = NCc1ccc(C[C@H](N)C(=O)O)cc1; Pip(5R-OH) = O=C(O)[C@@H]1CC[C@@H](O)CN1; X1 = O=C([C@@H]1CC[C@H](N[*:1])C1)[*:2]; X35 = CC(C)(N)[C@H](N[*:1])C(=O)[*:2]; Pip(4-aza) = O=C(O)[C@@H]1CNCCN1; 4Pal = N[C@@H](Cc1ccncc1)C(=O)O; NMeE = CN[C@@H](CCC(=O)O)C(=O)O; X36 = C[C@@H](C(=O)[*:1])[*:2]; X39 = C[C@H](C(=O)[*:1])[*:2]; αMeS = C[C@](N)(CO)C(=O)O; Carboxymethyl = O=C(O)C*; Nle = CCCC[C@H](N)C(=O)O; Sar = CNCC(=O)O

Columns and labels:
[1] = molecular target: T1, human soluble TNFR1 (sTNFR1) (Homo sapiens, UniProt P19438); assay: Human sTNFR1-peptide displacement assay (LanthaScreen Eu TR-FRET binding assay)
T1 construct: made in house; host or cells: Sf21 (baculovirus)
T1 sequence (P19438 with tags, fused parts or gaps): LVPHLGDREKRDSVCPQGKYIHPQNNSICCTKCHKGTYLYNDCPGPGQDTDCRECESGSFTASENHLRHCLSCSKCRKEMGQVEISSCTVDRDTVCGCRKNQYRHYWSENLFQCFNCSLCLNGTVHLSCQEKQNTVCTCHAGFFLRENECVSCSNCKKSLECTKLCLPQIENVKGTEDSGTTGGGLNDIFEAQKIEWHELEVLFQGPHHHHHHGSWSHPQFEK
Summary of the method: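 Readout is the 665/615 nm TR-FRET ratio (Eu anti-His donor, streptavidin-Alexa647 acceptor), normalized to DMSO and saturating displacer, fit by Morrison-based five-parameter logistic for Kd^app. His-tagged sTNFR1 (1-211) prebound to 100 nM biotinylated peptide SEQ ID NO.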

[2] = molecular target: T2, TNFα-induced NF-κB signal transduction pathway (TNFR1 signaling) in THP-1 cells (Homo sapiens, UniProt P19438); assay: THP-1 Lucia NF-κB reporter cell assay, inhibition of TNFα-induced NF-κB signaling; type: cell-based; details: THP-1 NF-κB Lucia reporter cells, 10 ng/mL TNFα, 16-18 h, secreted luciferase; read-out: THP-1 IC50
T2 sequence (P19438 30-455): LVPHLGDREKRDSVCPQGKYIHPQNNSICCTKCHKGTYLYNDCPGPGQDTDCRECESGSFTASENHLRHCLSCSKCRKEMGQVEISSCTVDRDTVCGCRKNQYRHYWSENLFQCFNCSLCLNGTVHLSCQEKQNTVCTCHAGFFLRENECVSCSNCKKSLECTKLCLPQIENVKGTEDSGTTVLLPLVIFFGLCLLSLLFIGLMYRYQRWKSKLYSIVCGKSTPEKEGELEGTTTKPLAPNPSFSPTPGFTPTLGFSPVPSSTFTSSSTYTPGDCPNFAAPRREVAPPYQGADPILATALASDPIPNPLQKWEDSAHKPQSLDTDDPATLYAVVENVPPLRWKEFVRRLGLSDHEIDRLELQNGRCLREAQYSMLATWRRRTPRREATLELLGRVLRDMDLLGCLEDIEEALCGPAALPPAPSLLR
Summary of the method: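 Inhibition of TNFR1-driven NF-κB activation was measured as luminescence of secreted reporter luciferase following overnight (16-18 h) stimulation with 10 ng/mL TNFα.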

[3] = displacement of biotinylated peptide SEQ ID NO. 1 from sTNFR1, 20 point titration, 5-parameter fit based on Morrison equation (tight binding), read-out: TR-FRET Kd^app

| Structure (SMILES) | Kd [1, 3] [nM] | IC50 ([1]; displacement of biotinylated peptide SEQ ID NO. 1 from sTNFR1, weaker binders, 10 pts titration, 4-parameter logistic model, read-out: TR-FRET, IC50) [nM] | IC50 [2] [nM] | IC50 [1] [nM] | Kd [1] [nM] |
| --- | --- | --- | --- | --- | --- |
| CCCC[C@@H]1NC(=O)[C@@H](C)SC[C@@H](C(N)=O)NC(=O)[C@H]([C@@H](C)c2c[nH]c3c(OC)cccc23)NC(=O)CN(C)C(=O)[C@H](Cc2ccc(O)cc2)NC(=O)[C@H](Cc2ccc(C(N)=O)cc2)NC(=O)[C@](C)(CO)NC(=O)[C@H](Cc2c[nH]c3c(Cl)cccc23)NC(=O)[C@H](Cc2ccncc2)NC(=O)[C@H](CC(N)=O)NC(=O)[C@H](CCC(=O)O)N(C)C(=O)[C@H](Cc2c[nH]c3ncccc23)NC(=O)[C@H](CO)NC(=O)[C@H](Cc2ccc(CN)cc2)NC1=O [SEQ ID NO. 250] ([Nle][Phe(4-CH2NH2)]S[Trp(7-aza)][NMeE]N[4Pal][Trp(7-Cl)][αMeS][Phe(4-CONH2)]Y[Sar][Trp(βS-Me,7-OMe)]C-NH2; linker N-14 via X39) | 0.17 | 0.27 | 2.4 | – | – |
| CCCC[C@@H]1NC(=O)CSC[C@@H](C(N)=O)NC(=O)[C@H]([C@@H](C)c2c[nH]c3c(OC)cccc23)NC(=O)CN(C)C(=O)[C@H](Cc2ccc(C(=O)O)cc2)NC(=O)[C@H](Cc2ccc(C(=O)O)cc2)NC(=O)[C@](C)(CO)NC(=O)[C@H](Cc2c[nH]c3c(Cl)cccc23)NC(=O)[C@H](Cc2ccncc2)NC(=O)[C@H](CC(N)=O)NC(=O)[C@H](CCC(=O)O)N(C)C(=O)[C@H](Cc2c[nH]c3ccccc23)NC(=O)[C@@H]2CNCCN2C(=O)[C@H](Cc2ccncc2)NC1=O [SEQ ID NO. 251] ({CH2CO}-[Nle][4Pal][Pip(4-aza)]W[NMeE]N[4Pal][Trp(7-Cl)][αMeS][Phe(4-COOH)][Phe(4-COOH)][Sar][Trp(βS-Me,7-OMe)]C-NH2; thioether N-14) | – | – | 2.7 | 0.5 | 1.17 |
| CCCC[C@@H]1NC(=O)CSC[C@@H](C(N)=O)NC(=O)[C@H]([C@@H](C)c2c[nH]c3c(OC)cccc23)NC(=O)CN(C)C(=O)[C@H](Cc2ccc(O)cc2)NC(=O)[C@H](Cc2ccc(C(=O)O)cc2)NC(=O)[C@](C)(CO)NC(=O)[C@H](Cc2c[nH]c3c(Cl)cccc23)NC(=O)[C@H]([C@@H](C)c2ccncc2)NC(=O)[C@H](CC(N)=O)NC(=O)[C@H](CCC(=O)O)N(C)C(=O)[C@H](Cc2c[nH]c3ccccc23)NC(=O)[C@H](CO)NC(=O)[C@H](Cc2ccc(CN)cc2)NC1=O [SEQ ID NO. 252] ({CH2CO}-[Nle][Phe(4-CH2NH2)]SW[NMeE]N[4Pal(3S-Me)][Trp(7-Cl)][αMeS][Phe(4-COOH)]Y[Sar][Trp(βS-Me,7-OMe)]C-NH2; thioether N-14) | – | – | 23.3 | 2.39 | – |
| CCCC[C@@H]1NC(=O)[C@@H]2CC[C@@H](C2)NC(=O)[C@H]([C@@H](C)c2c[nH]c3c(OC)cccc23)NC(=O)CN(C)C(=O)[C@H](Cc2ccc(OCC(=O)O)cc2)NC(=O)[C@H](Cc2ccc(S(N)(=O)=O)cc2)NC(=O)[C@](C)(CO)NC(=O)[C@H](Cc2c[nH]c3c(C#N)cccc23)NC(=O)[C@H](Cc2ccc(OCC(=O)O)cc2)NC(=O)[C@H](CC(N)=O)NC(=O)[C@H]2C[C@H]([N+](C)(C)C)CN2C(=O)[C@H](Cc2c[nH]c3ncccc23)NC(=O)[C@@H]2CC[C@@H](O)CN2C(=O)[C@H](Cc2ccncc2)NC1=O [SEQ ID NO. 257] (cyclo([4Pal][Pip(5R-OH)][Trp(7-aza)][dPro(trans-4-NMe3+)]NY(Carboxymethyl)[Trp(7-CN)][αMeS][Phe(4-SO2NH2)]Y(Carboxymethyl)[Sar][Trp(βS-Me,7-OMe)][X1][Nle])) | 0.08 | – | 0.4 | – | – |
| CCCC[C@@H]1NC(=O)[C@H](C)SC[C@@H](C(N)=O)NC(=O)[C@H]([C@@H](C)c2c[nH]c3c(OC)cccc23)NC(=O)CN(C)C(=O)[C@H](Cc2ccc(O)cc2)NC(=O)[C@H](Cc2ccc(C(N)=O)cc2)NC(=O)[C@](C)(CO)NC(=O)[C@H](Cc2c[nH]c3c(Cl)cccc23)NC(=O)[C@H](Cc2ccncc2)NC(=O)[C@H](CC(N)=O)NC(=O)[C@H](CCC(=O)O)N(C)C(=O)[C@H](Cc2c[nH]c3ncccc23)NC(=O)[C@H](C(C)(C)N)NC(=O)[C@H](Cc2ccncc2)NC1=O [SEQ ID NO. 273] ([Nle][4Pal][X35][Trp(7-aza)][NMeE]N[4Pal][Trp(7-Cl)][αMeS][Phe(4-CONH2)]Y[Sar][Trp(βS-Me,7-OMe)]C-NH2; linker N-14 via X36) | – | – | 4.1 | 0.6 | 0.33 |
